1 substance from US10525088B2, “Lactic acid bacterial immunopotentiating activity-increasing composition and method for increasing immunopotentiating activity of lactic acid bacteria” (Kirin Holdings Kabushiki Kaisha, priority 2014, dated 2020) can be followed below.

In the assay the test system is dendritic cells induced from myeloblasts. Nature of the assay: Interferon-α production by dendritic cells induced from mouse myeloblasts (Flt-3L), cultured with JCM5805 and sample. The following applies: 0.1 (w/v) % JCM5805 + 0.25 (w/v) % sample; myeloblast-derived dendritic cells; 24 hours. The format is cell-based, mice. The procedure:
Medium was inoculated with 1 ml of the obtained cell suspension and the culture was incubated at 37° C., 5% CO2 in a CO2 incubator for 1 week to induce dendritic cells. […] The samples were the lactic acid bacteria only, sucrose palmitate, and Ryoto Sugar Ester […] (mainly containing sucrose palmitate) (Mitsubishi-Kagaku Foods Corporation).

Consider sucrose palmitate, for which the “change of interferon-α inducing activity of JCM5805 by the sample” value was “increased”.
